# Experimental data reported in patent US9738655B2, “Tetrahydroisoquinolines containing substituted azoles as factor XIa inhibitors” (BRISTOL-MYERS SQUIBB COMPANY, priority 2013, dated 2017).
# Where a name gives a salt, the structure may show the parent alone. Read-outs that look alike come from different tables or passages of the source.
# Legend:
# [1] = target: purified human plasma kallikrein (Homo sapiens (Human), UniProt P03952); test: Plasma kallikrein enzyme inhibition assay (chromogenic substrate S-2302); type: biochemical
# [2] = target: purified human Factor XIa (Homo sapiens (Human), UniProt P03951); test: Factor XIa enzyme inhibition assay (chromogenic substrate S-2366)
# [3] = measured at 25° C. (no asterisk)
# [4] = read-out: Factor XIa Ki, measured at 25° C.
# purified human Factor XIa, sequence (P03951 388-625): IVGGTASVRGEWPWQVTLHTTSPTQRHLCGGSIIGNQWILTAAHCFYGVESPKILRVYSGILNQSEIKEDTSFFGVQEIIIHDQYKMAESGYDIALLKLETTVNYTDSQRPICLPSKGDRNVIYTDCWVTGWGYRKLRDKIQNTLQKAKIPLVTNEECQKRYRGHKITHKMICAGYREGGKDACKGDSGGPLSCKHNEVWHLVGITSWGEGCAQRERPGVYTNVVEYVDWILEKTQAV
# purified human Factor XIa, sequence (P03951 19-387 partner): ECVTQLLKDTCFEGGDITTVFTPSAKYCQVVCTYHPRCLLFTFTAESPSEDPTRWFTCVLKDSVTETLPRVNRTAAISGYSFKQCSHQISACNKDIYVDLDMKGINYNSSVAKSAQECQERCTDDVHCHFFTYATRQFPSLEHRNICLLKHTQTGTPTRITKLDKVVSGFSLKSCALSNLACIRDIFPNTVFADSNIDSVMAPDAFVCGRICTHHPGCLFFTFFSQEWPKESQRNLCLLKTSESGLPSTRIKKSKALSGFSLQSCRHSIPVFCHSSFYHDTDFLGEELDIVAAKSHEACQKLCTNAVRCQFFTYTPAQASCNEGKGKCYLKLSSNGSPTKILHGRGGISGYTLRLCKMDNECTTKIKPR
# purified human plasma kallikrein, sequence (P03952 391-638): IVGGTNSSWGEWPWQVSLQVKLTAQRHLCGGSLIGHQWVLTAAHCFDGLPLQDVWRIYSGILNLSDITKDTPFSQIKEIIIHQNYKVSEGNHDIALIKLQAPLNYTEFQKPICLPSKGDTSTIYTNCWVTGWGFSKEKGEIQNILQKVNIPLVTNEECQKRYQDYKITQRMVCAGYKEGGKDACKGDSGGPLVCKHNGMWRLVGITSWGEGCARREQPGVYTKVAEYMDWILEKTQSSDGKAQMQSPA
# purified human plasma kallikrein, sequence (P03952 20-390 partner): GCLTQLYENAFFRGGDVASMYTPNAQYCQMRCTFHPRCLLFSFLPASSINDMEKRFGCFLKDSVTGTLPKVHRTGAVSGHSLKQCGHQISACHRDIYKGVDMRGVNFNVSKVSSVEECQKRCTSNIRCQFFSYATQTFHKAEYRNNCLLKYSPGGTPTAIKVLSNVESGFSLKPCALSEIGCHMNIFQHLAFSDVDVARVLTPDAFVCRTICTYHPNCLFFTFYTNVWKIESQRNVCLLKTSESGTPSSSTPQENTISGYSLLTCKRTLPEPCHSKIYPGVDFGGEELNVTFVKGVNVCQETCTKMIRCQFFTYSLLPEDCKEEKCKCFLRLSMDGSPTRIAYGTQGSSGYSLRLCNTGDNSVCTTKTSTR
"Ki [1, 3] [nM]","Ki [2, 4] [nM]",Ki [2] [nM],Ki ([1]; measured at 37° C. (*)) [nM],SMILES
11.9,7.1,–,–,"O=C(O)c1ccc(NC(=O)C2c3cccc(N4CC[C@H](O)C4=O)c3CCN2C(=O)c2cn(-c3cccc(Cl)c3F)nn2)cc1 (stereo partly drawn) [Example 196, 4-(2-(1-(3-Chloro-2-fluorophenyl)-1H-1,2,3-triazole-4-carbonyl)-5-((S)-3-hydroxy-2-oxopyrrolidin-1-yl)-1,2,3,4-tetrahydroisoquinoline-1-carboxamido)benzoic acid, TFA salt]"
10,< 5,–,–,"O=C(O)c1ccc(NC(=O)C2c3cccc(N4CCN(CC(F)(F)F)CC4=O)c3CCN2C(=O)c2cn(-c3cccc(Cl)c3F)nn2)cc1 (stereo not shown) [Example 197, 4-(2-(1-(3-Chloro-2-fluorophenyl)-1H-1,2,3-triazole-4-carbonyl)-5-(2-oxo-4-(2,2,2-trifluoroethyl)piperazin-1-yl)-1,2,3,4-tetrahydroisoquinoline-1-carboxamido)benzoic acid, TFA salt]"
122,49.5,–,–,"CN1CCN(c2cccc3c2CCN(C(=O)c2cc(-c4cccc(Cl)c4)no2)C3C(=O)Nc2ccc(C(=O)O)cc2)CC1 (stereo not shown) [Example 198, 4-(2-(3-(3-chlorophenyl)isoxazole-5-carbonyl)-5-(4-methylpiperazin-1-yl)-1,2,3,4-tetrahydroisoquinoline-1-carboxamido)benzoic acid, 2 TFA salt]"
–,2300,–,> 6000,"CN1CCN(c2cccc3c2CCN(C(=O)c2cn(-c4cccc(Cl)c4)nc2C(F)(F)F)C3C(=O)Nc2ccc(C(=O)O)cc2)CC1 (stereo not shown) [Example 199, 4-(2-(1-(3-chlorophenyl)-3-(trifluoromethyl)-1H-pyrazole-4-carbonyl)-5-(4-methylpiperazin-1-yl)-1,2,3,4-tetrahydroisoquinoline-1-carboxamido)benzoic acid, 2 TFA salt]"
10.7,41.7,–,–,"CN1CCN(c2cccc3c2CCN(C(=O)c2cnn(-c4cccc(Cl)c4)c2)C3C(=O)Nc2ccc(C(=O)O)cc2)CC1 (stereo not shown) [Example 200, 4-(2-(1-(3-chlorophenyl)-1H-pyrazole-4-carbonyl)-5-(4-methylpiperazin-1-yl)-1,2,3,4-tetrahydroisoquinoline-1-carboxamido)benzoic acid, 2 TFA salt]"
4.21,9.88,–,–,"CN1CCN(c2cccc3c2CCN(C(=O)c2cn(-c4cccc(Cl)c4)nn2)C3C(=O)Nc2ccc(C(=O)O)cc2)CC1 (stereo not shown) [Example 201, 4-(2-(1-(3-chlorophenyl)-1H-1,2,3-triazole-4-carbonyl)-5-(4-methylpiperazin-1-yl)-1,2,3,4-tetrahydroisoquinoline-1-carboxamido)benzoic acid, 2 TFA salt]"
0.64,< 5,–,–,"CN1CCN(c2cccc3c2CCN(C(=O)C2CC(c4c(F)ccc(Cl)c4F)=NO2)C3C(=O)Nc2ccc(C(=O)O)cc2)CC1 (stereo not shown) [Example 205, 4-(2-(3-(3-chloro-2,6-difluorophenyl)-4,5-dihydroisoxazole-5-carbonyl)-5-(4-methylpiperazin-1-yl)-1,2,3,4-tetrahydroisoquinoline-1-carboxamido)benzoic acid, 2 TFA salt]"
0.52,< 5,–,–,"CN1CCN(c2cccc3c2CCN(C(=O)c2cn(-c4cccc(Cl)c4F)nn2)C3C(=O)Nc2ccc(C(=O)O)cc2)CC1 (stereo not shown) [Example 211, 4-(2-(1-(3-chloro-2-fluorophenyl)-1H-1,2,3-triazole-4-carbonyl)-5-(4-methylpiperazin-1-yl)-1,2,3,4-tetrahydroisoquinoline-1-carboxamido)benzoic acid, 2 TFA salt]"
20.2,< 5,–,–,"COC1CCN(c2cccc3c2CCN(C(=O)c2cn(-c4cccc(Cl)c4F)nn2)C3C(=O)Nc2ccc(C(=O)O)cc2)CC1 (stereo not shown) [Example 215, 4-(2-(1-(3-chloro-2-fluorophenyl)-1H-1,2,3-triazole-4-carbonyl)-5-(4-methoxypiperidin-1-yl)-1,2,3,4-tetrahydroisoquinoline-1-carboxamido)benzoic acid, TFA salt]"
3.12,15.2,–,–,"CN1CCN(c2cccc3c2CCN(C(=O)C2CC(c4cccc(Cl)c4)=NO2)C3C(=O)Nc2ccc(C(=O)O)cc2)CC1 (stereo not shown) [Example 217, 4-(2-(3-(3-chlorophenyl)-4,5-dihydroisoxazole-5-carbonyl)-5-(4-methylpiperazin-1-yl)-1,2,3,4-tetrahydroisoquinoline-1-carboxamido)benzoic acid, 2 TFA salt]"
1.96,< 5,–,–,"CCOC(=O)c1ccc(NC(=O)C2c3cccc(N4CCC(N5CCCC5)CC4)c3CCN2C(=O)c2cn(-c3cccc(Cl)c3F)nn2)cc1 (stereo not shown) [Example 219, Ethyl 4-(2-(1-(3-chloro-2-fluorophenyl)-1H-1,2,3-triazole-4-carbonyl)-5-(4-(pyrrolidin-1-yl)piperidin-1-yl)-1,2,3,4-tetrahydroisoquinoline-1-carboxamido)benzoate, 2 TFA salt]"

# Second part, the molecule before the results:
SMILES,"Ki [1, 3] [nM]","Ki [2, 4] [nM]",Ki [2] [nM],Ki ([1]; measured at 37° C. (*)) [nM]
"Cn1ncc2cc(-c3cccc4c3CCN(C(=O)c3cn(-c5cccc(Cl)c5F)nn3)C4C(=O)Nc3ccc(C(=O)O)cc3)ccc21 (stereo not shown) [Example 156, 4-(2-(1-(3-chloro-2-fluorophenyl)-1H-1,2,3-triazole-4-carbonyl)-5-(1-methyl-1H-indazol-5-yl)-1,2,3,4-tetrahydroisoquinoline-1-carboxamido)benzoic acid]",30.1,< 5,–,–
"O=C(O)c1ccc(NC(=O)C2c3cccc(-c4ccc5c(c4)OCO5)c3CCN2C(=O)c2cn(-c3cccc(Cl)c3F)nn2)cc1 (stereo not shown) [Example 157, 4-(5-(benzo[d][1,3]dioxol-5-yl)-2-(1-(3-chloro-2-fluorophenyl)-1H-1,2,3-triazole-4-carbonyl)-1,2,3,4-tetrahydroisoquinoline-1-carboxamido)benzoic acid]",29.5,< 5,–,–
"O=C(O)c1ccc(NC(=O)C2c3cccc(-c4cnoc4)c3CCN2C(=O)c2cn(-c3cccc(Cl)c3F)nn2)cc1 (stereo not shown) [Example 159, 4-(2-(1-(3-chloro-2-fluorophenyl)-1H-1,2,3-triazole-4-carbonyl)-5-(isoxazol-4-yl)-1,2,3,4-tetrahydroisoquinoline-1-carboxamido)benzoic acid]",21.9,13.2,–,–
"O=C(O)c1ccc(NC(=O)C2c3cccc(-c4ccc5cn[nH]c5c4)c3CCN2C(=O)c2cn(-c3cccc(Cl)c3F)nn2)cc1 (stereo not shown) [Example 161, 4-(2-(1-(3-chloro-2-fluorophenyl)-1H-1,2,3-triazole-4-carbonyl)-5-(1H-indazol-6-yl)-1,2,3,4-tetrahydroisoquinoline-1-carboxamido)benzoic acid]",2.46,< 5,–,–
"Cn1cc2ccc(-c3cccc4c3CCN(C(=O)c3cn(-c5cccc(Cl)c5F)nn3)C4C(=O)Nc3ccc(C(=O)O)cc3)cc2n1 (stereo not shown) [Example 162, 4-(2-(1-(3-chloro-2-fluorophenyl)-1H-1,2,3-triazole-4-carbonyl)-5-(2-methyl-2H-indazol-6-yl)-1,2,3,4-tetrahydroisoquinoline-1-carboxamido)benzoic acid]",49.9,< 5,–,–
"COC1CCN(c2cccc3c2CCN(C(=O)c2cn(-c4cccc(Cl)c4F)nn2)C3C(=O)Nc2ccc3c(c2)CCC(=O)N3C)CC1 (stereo not shown) [Example 189, 2-(1-(3-Chloro-2-fluorophenyl)-1H-1,2,3-triazole-4-carbonyl)-5-(4-methoxypiperidin-1-yl)-N-(1-methyl-2-oxo-1,2,3,4-tetrahydroquinolin-6-yl)-1,2,3,4-tetrahydroisoquinoline-1-carboxamide, TFA salt]",540,411,–,–
"COC1CCN(c2cccc3c2CCN(C(=O)c2cn(-c4cccc(Cl)c4F)nn2)C3C(=O)Nc2ccc3c(c2)CC(=O)N3)CC1 (stereo not shown) [Example 190, 2-(1-(3-Chloro-2-fluorophenyl)-1H-1,2,3-triazole-4-carbonyl)-5-(4-methoxypiperidin-1-yl)-N-(2-oxoindolin-5-yl)-1,2,3,4-tetrahydroisoquinoline-1-carboxamide, TFA salt]",163,98.1,–,–
"CC(=O)Nc1cccc2c1CCN(C(=O)c1cn(-c3cccc(Cl)c3F)nn1)C2C(=O)Nc1ccc(C(=O)O)cc1 (stereo not shown) [Example 191, 4-(5-Acetamido-2-(1-(3-chloro-2-fluorophenyl)-1H-1,2,3-triazole-4-carbonyl)-1,2,3,4-tetrahydroisoquinoline-1-carboxamido)benzoic acid]",12.3,13.4,–,–
"CN1CCC(NC(=O)c2cccc3c2CCN(C(=O)c2cn(-c4cccc(Cl)c4F)nn2)C3C(=O)Nc2ccc(C(=O)O)cc2)CC1 (stereo not shown) [Example 192, 4-(2-(1-(3-Chloro-2-fluorophenyl)-1H-1,2,3-triazole-4-carbonyl)-5-((1-methylpiperidin-4-yl)carbamoyl)-1,2,3,4-tetrahydroisoquinoline-1-carboxamido)benzoic acid, TFA salt]",55.6,9.97,–,–
"O=C(Nc1cccc2c1CCN(C(=O)c1cn(-c3cccc(Cl)c3F)nn1)C2C(=O)Nc1ccc(C(=O)O)cc1)NC1CCCC1 (stereo not shown) [Example 193, 4-(2-(1-(3-Chloro-2-fluorophenyl)-1H-1,2,3-triazole-4-carbonyl)-5-(3-cyclopentylureido)-1,2,3,4-tetrahydroisoquinoline-1-carboxamido)benzoic acid]",2.34,19.9,–,–
"O=C(O)c1ccc(NC(=O)C2c3cccc(Cl)c3CCN2C(=O)c2cn(-c3cccc(Cl)c3F)nn2)cc1 (stereo not shown) [Example 194, 4-(5-Chloro-2-(1-(3-chloro-2-fluorophenyl)-1H-1,2,3-triazole-4-carbonyl)-1,2,3,4-tetrahydroisoquinoline-1-carboxamido)benzoic acid]",41.5,–,57.1,–
"O=C(O)c1ccc(NC(=O)C2c3cccc(F)c3CCN2C(=O)c2cn(-c3cccc(Cl)c3F)nn2)cc1 (stereo not shown) [Example 195, 4-(2-(1-(3-Chloro-2-fluorophenyl)-1H-1,2,3-triazole-4-carbonyl)-5-fluoro-1,2,3,4-tetrahydroisoquinoline-1-carboxamido)benzoic acid]",30.9,40.1,–,–
